Drawing on ChEMBL document CHEMBL1152811, “Docking model of drug binding to the human ether-à-go-go potassium channel guided by tandem dimer mutant patch-clamp data: a synergic approach” (J Med Chem, 2009), this text covers IC50 and Activity for 4 compounds.

SMILES strings stand for the structures. Activity calls are given as the source filed them. The calls are words filed in the database; no cut-off is given here.

Common to all, as to type: cell-based
The nature of assay [1]: Inhibition of human ERG td[wt:Y652A] mutant expressed in HEK293 cells by whole cell patch clamp method.
The nature of assay [2]: Inhibition of human ERG td[wt:F656A] mutant expressed in HEK293 cells by whole cell patch clamp method. On the technique in general: In patch-clamp work, channel activity is measured electrically.
For assay [3], the target named is Voltage-gated inwardly rectifying potassium channel KCNH2 (Homo sapiens, UniProt Q12809). As to the kind of experiment: Inhibition of human ERG expressed in HEK293 cells by whole cell patch clamp method.
Chain of Voltage-gated inwardly rectifying potassium channel KCNH2 (Q12809 whole entry): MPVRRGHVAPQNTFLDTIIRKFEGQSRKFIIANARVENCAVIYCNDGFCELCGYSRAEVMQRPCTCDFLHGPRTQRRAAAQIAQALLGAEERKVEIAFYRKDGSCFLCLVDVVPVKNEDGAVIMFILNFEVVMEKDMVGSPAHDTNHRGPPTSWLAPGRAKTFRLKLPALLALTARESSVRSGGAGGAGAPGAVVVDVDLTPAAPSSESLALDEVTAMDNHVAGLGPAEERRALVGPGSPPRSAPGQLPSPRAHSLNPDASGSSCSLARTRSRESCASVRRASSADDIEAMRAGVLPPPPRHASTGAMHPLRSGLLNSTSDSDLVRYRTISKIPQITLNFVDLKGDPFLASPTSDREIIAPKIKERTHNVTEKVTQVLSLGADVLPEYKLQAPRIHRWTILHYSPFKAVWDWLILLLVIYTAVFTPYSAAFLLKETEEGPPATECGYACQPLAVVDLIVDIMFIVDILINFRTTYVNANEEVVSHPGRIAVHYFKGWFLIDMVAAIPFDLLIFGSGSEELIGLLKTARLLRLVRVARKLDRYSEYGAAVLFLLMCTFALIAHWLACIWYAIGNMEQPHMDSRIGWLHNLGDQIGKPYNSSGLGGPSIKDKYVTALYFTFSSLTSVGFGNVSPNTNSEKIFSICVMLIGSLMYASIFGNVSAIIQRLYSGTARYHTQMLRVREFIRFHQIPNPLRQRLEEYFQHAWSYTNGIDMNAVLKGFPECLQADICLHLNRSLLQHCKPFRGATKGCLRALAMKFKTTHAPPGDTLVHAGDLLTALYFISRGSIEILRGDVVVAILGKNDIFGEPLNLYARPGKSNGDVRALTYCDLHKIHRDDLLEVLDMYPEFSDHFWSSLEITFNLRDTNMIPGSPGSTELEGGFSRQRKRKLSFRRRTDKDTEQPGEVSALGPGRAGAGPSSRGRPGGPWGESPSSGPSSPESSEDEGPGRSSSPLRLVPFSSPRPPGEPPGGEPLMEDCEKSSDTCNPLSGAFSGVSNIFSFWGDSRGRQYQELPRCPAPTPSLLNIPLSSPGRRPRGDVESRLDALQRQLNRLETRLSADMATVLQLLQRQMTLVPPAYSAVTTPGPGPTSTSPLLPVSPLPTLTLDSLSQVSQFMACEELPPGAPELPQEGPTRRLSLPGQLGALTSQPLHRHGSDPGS
The subject of assay [4] is HEK293. As to the kind of experiment: Binding affinity to human ERG td[wt:Y652A] mutant expressed in HEK293 cells assessed as blockade of membrane current at 0.2 uM by whole cell patch clamp method.
Assay [5] relates to HEK293. As to the kind of experiment: Binding affinity to human ERG td[wt:F656A] mutant expressed in HEK293 cells assessed as blockade of membrane current at 0.05 uM by whole cell patch clamp method.

One may read the IC50 as the concentration that gives 50% inhibition. Low readings indicate higher potency, high ones lower potency. `Cc1cccc(CCN2CCC(C(=O)c3ccc(NS(C)(=O)=O)cc3)CC2)n1`: the IC50 came to 250 nM in assay [1] and 20 nM in assay [2].
`CCOc1cc(N)c(Cl)cc1C(=O)NCC1CN(Cc2ccc(F)cc2)CCO1` (centres undefined) [MOSAPRIDE]: the IC50 in assay [3] amounted to 4800 nM. That is a single-digit micromolar value.
On to `COc1cc(N)c(Cl)cc1C(=O)NC1CCN(CCCOc2ccc(F)cc2)CC1OC` (centres undefined) [CISAPRIDE], for which the result in the assay with HEK293 [4] and with HEK293 [5] was Active. Besides, the IC50 in assay [1] came to 180 nM; in assay [2], 10 nM.
Turning to `CC(C)(C)c1ccc(C(O)CCCN2CCC(C(O)(c3ccccc3)c3ccccc3)CC2)cc1` (centres undefined) [TERFENADINE], the IC50 in assay [1] and in assay [2] was 30 nM throughout.
